# PubChem BioAssay (NCI)
# Where “and” joins values, the source holds several entries; their conditions need not be identical. Identical values can stand only once.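 Where inhibition never reached the appropriate level, the endpoint shown equals the highest concentration tested. Otherwise, values were interpolated linearly from a five-concentration, 48-hour dose response in 96-well plates. The concentration for 50% growth inhibition is given as GI50. At the TGI there is no net growth.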
# Legend:
# Test in all cases: NCI anticancer screen, dose series, 48 h
# 786-0 renal = test system: 786-0 renal
# A498 renal = test system: A498 renal
# A549 NSCLC = test system: A549 NSCLC
# ACHN renal = test system: ACHN renal
# BT-549 breast = test system: BT-549 breast
# CAKI-1 renal = test system: CAKI-1 renal
# CCRF-CEM leukemia = test system: CCRF-CEM leukemia
# COLO 205 colon = test system: COLO 205 colon
# DLD-1 colon = test system: DLD-1 colon
# DMS 114 small cell lung = test system: DMS 114 small cell lung
# DMS 273 small cell lung = test system: DMS 273 small cell lung
# DU-145 prostate = test system: DU-145 prostate
# EKVX NSCLC = test system: EKVX NSCLC
# HCC-2998 colon = test system: HCC-2998 colon
# HCT-116 colon = test system: HCT-116 colon
# HCT-15 colon = test system: HCT-15 colon
# HL-60(TB) leukemia = test system: HL-60(TB) leukemia
# HOP-18 NSCLC = test system: HOP-18 NSCLC
# HOP-62 NSCLC = test system: HOP-62 NSCLC
# HOP-92 NSCLC = test system: HOP-92 NSCLC
# HS 578T breast = test system: HS 578T breast
# HT29 colon = test system: HT29 colon
# IGROV1 ovarian = test system: IGROV1 ovarian
# K-562 leukemia = test system: K-562 leukemia
# KM12 colon = test system: KM12 colon
# KM20L2 colon = test system: KM20L2 colon
# LOX IMVI melanoma = test system: LOX IMVI melanoma
# LXFL 529 NSCLC = test system: LXFL 529 NSCLC
# M14 melanoma = test system: M14 melanoma
# M19-MEL melanoma = test system: M19-MEL melanoma
# MALME-3M melanoma = test system: MALME-3M melanoma
# MCF7 breast = test system: MCF7 breast
# MDA-MB-231 breast = test system: MDA-MB-231 breast
# MDA-MB-435 = test system: MDA-MB-435
# MDA-N = test system: MDA-N
# MOLT-4 leukemia = test system: MOLT-4 leukemia
# NCI-H226 lung = test system: NCI-H226 lung
# NCI-H23 lung = test system: NCI-H23 lung
# NCI-H460 lung = test system: NCI-H460 lung
# NCI-H522 lung = test system: NCI-H522 lung
# NCI/ADR-RES ovarian = test system: NCI/ADR-RES ovarian
# OVCAR-3 ovarian = test system: OVCAR-3 ovarian
# OVCAR-4 ovarian = test system: OVCAR-4 ovarian
# OVCAR-5 ovarian = test system: OVCAR-5 ovarian
# RPMI-8226 leukemia = test system: RPMI-8226 leukemia
# RXF 393 renal = test system: RXF 393 renal
# SF-268 CNS = test system: SF-268 CNS
# SF-295 CNS = test system: SF-295 CNS
# SF-539 CNS = test system: SF-539 CNS
# SK-MEL-2 melanoma = test system: SK-MEL-2 melanoma
# SK-MEL-28 melanoma = test system: SK-MEL-28 melanoma
# SK-MEL-5 melanoma = test system: SK-MEL-5 melanoma
# SK-OV-3 ovarian = test system: SK-OV-3 ovarian
# SNB-19 CNS = test system: SNB-19 CNS
# SNB-75 CNS = test system: SNB-75 CNS
# SNB-78 CNS = test system: SNB-78 CNS
# SR leukemia = test system: SR leukemia
# SW-620 colon = test system: SW-620 colon
# T-47D breast = test system: T-47D breast
# TK-10 renal = test system: TK-10 renal
# U251 CNS = test system: U251 CNS
# UACC-257 melanoma = test system: UACC-257 melanoma
# UACC-62 melanoma = test system: UACC-62 melanoma
# UO-31 renal = test system: UO-31 renal
# XF 498 CNS = test system: XF 498 CNS
smiles,measurement,setting,value
CN(C)CCCCCNc1c2ccccc2nc2cccc([N+](=O)[O-])c12,TGI,786-0 renal,7.98 nM
same,TGI,A498 renal,7.58 nM
same,GI50,A549 NSCLC,5.71 nM
same,TGI,A549 NSCLC,2.35 nM
same,GI50,ACHN renal,3.74 nM
same,TGI,ACHN renal,3.25 nM
same,TGI,BT-549 breast,2.62 nM
same,TGI,CAKI-1 renal,15.8 nM
same,TGI,CCRF-CEM leukemia,> 100 nM and 10.2 nM
same,GI50,COLO 205 colon,5.91 nM
same,TGI,COLO 205 colon,1.73 nM
same,TGI,DLD-1 colon,31 nM
same,TGI,DMS 114 small cell lung,11.8 nM
same,TGI,DMS 273 small cell lung,15.2 nM
same,TGI,DU-145 prostate,3.46 nM
same,TGI,EKVX NSCLC,12.8 nM
same,GI50,HCC-2998 colon,2.37 nM
same,TGI,HCC-2998 colon,12.6 nM
same,GI50,HCT-116 colon,5.83 nM
same,TGI,HCT-116 colon,12 nM
same,GI50,HCT-15 colon,2.18 nM and 2.74 nM
same,GI50,HL-60(TB) leukemia,2.66 nM
same,TGI,HL-60(TB) leukemia,> 100 nM
same,TGI,HOP-18 NSCLC,> 100 nM
same,TGI,HOP-62 NSCLC,7.16 nM
same,TGI,HOP-92 NSCLC,8.95 nM
same,TGI,HS 578T breast,5.9 nM
same,GI50,HT29 colon,5.02 nM
same,TGI,HT29 colon,8.39 nM
same,GI50,IGROV1 ovarian,6.21 nM
same,TGI,IGROV1 ovarian,6.55 nM
same,GI50,K-562 leukemia,2.12 nM
same,TGI,K-562 leukemia,> 94.5 nM
same,TGI,KM12 colon,72.5 nM
same,TGI,KM20L2 colon,53.2 nM
same,TGI,LOX IMVI melanoma,11.3 nM
same,TGI,LXFL 529 NSCLC,85 nM
same,TGI,M14 melanoma,3.12 nM
same,TGI,M19-MEL melanoma,19.4 nM
same,TGI,MALME-3M melanoma,5.06 nM
same,GI50,MCF7 breast,0.212 nM
same,TGI,MCF7 breast,0.689 nM
same,TGI,MDA-MB-231 breast,2.02 nM
same,TGI,MDA-MB-435,0.488 nM
same,TGI,MDA-N,0.409 nM
same,GI50,MOLT-4 leukemia,6.27 nM
same,TGI,MOLT-4 leukemia,> 100 nM
same,TGI,NCI-H226 lung,57 nM
same,GI50,NCI-H23 lung,1.62 nM
same,TGI,NCI-H23 lung,3.44 nM and 2.34 nM
same,GI50,NCI-H460 lung,1.45 nM
same,GI50,NCI-H522 lung,1.54 nM and 0.466 nM
same,TGI,NCI-H522 lung,2.9 nM and 1.86 nM
same,TGI,NCI/ADR-RES ovarian,5.5 nM
same,TGI,OVCAR-3 ovarian,5.04 nM
same,GI50,OVCAR-4 ovarian,3.39 nM
same,TGI,OVCAR-4 ovarian,2.36 nM
same,GI50,OVCAR-5 ovarian,2.64 nM
same,TGI,OVCAR-5 ovarian,11.5 nM
same,TGI,RPMI-8226 leukemia,> 100 nM and 18.8 nM
same,GI50,RXF 393 renal,1.39 nM
same,TGI,RXF 393 renal,3.2 nM
same,TGI,SF-268 CNS,12.5 nM and 18 nM
same,GI50,SF-295 CNS,9.7 nM
same,TGI,SF-539 CNS,9.79 nM and 15.7 nM
same,TGI,SK-MEL-2 melanoma,2.57 nM
same,TGI,SK-MEL-28 melanoma,11.3 nM
same,GI50,SK-MEL-5 melanoma,6.93 nM
same,TGI,SK-MEL-5 melanoma,3.35 nM
same,TGI,SK-OV-3 ovarian,> 24.5 nM
same,TGI,SNB-19 CNS,> 23.1 nM and 31.7 nM
same,TGI,SNB-75 CNS,5.34 nM
same,TGI,SNB-78 CNS,46.7 nM
same,GI50,SR leukemia,0.559 nM
same,TGI,SR leukemia,6.97 nM and > 27.8 nM
same,GI50,SW-620 colon,6.32 nM
same,TGI,SW-620 colon,12.6 nM
same,GI50,T-47D breast,0.296 nM
same,TGI,T-47D breast,1.5 nM
same,TGI,TK-10 renal,20.7 nM
same,GI50,U251 CNS,6.5 nM
same,TGI,U251 CNS,25.1 nM
same,TGI,UACC-257 melanoma,> 23.1 nM
same,GI50,UACC-62 melanoma,5.22 nM
same,TGI,UACC-62 melanoma,4.04 nM
same,GI50,UO-31 renal,12.5 nM
same,TGI,UO-31 renal,42.5 nM
same,TGI,XF 498 CNS,8.5 nM
